Laboratory results taken from PMC5607274, “An iterative compound screening contest method for identifying target protein inhibitors using the tyrosine-protein kinase Yes” (Scientific Reports, 2017).

target: T1, human recombinant Yes [a.a. 2–543 (end)] (Homo sapiens, UniProt P07947); assay: ADP-Glo kinase assay, inhibition rates of Yes phosphorylation activity (first and second screening); assay type: biochemical; conditions: first screening; mean of n = 4 wells; 10 μmol L−1 compound
T1 construct: human recombinant Yes [a.a; 2–543 (end)]; purchased BPS Bioscience 40488
T1 sequence (P07947 2-543): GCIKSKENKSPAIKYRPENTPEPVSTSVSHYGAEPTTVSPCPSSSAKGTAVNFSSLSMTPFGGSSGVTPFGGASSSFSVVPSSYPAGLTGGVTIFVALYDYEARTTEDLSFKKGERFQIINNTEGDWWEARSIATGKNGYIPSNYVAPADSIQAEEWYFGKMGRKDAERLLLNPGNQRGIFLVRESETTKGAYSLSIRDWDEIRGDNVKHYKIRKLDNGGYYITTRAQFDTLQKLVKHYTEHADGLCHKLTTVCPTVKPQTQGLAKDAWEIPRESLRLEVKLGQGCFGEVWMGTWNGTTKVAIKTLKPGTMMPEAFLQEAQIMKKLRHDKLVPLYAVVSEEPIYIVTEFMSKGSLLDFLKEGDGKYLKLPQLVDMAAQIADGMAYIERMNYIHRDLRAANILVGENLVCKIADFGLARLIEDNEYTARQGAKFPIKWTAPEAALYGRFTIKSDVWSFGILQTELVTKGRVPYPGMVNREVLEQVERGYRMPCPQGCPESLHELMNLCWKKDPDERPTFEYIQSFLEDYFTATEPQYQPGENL
Method in brief: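 Hits from a first pass were rescreened after re-dissolution from fresh powder. The first pass reported the mean inhibition rate of quadruplicate wells per compound. Activity was that of recombinant human Yes [a.a. 2–543] kinase, read out with the ADP-Glo ADP-detection method.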

First screening IR (inhibition rate)	SMILES
11%	c1ccc(-c2cn3nc(NCCCN4CCOCC4)sc3n2)cc1 [Compound Z300797868]
8%	Cc1cc(C)n(CCCNC(=O)c2cc3cc(F)ccc3[nH]2)n1 [Compound Z301214762]
7%	O=c1[nH]cnc2c1c(-c1ccccc1)cn2-c1ccc(F)cc1 [Compound Z314617634]
-1%	COc1cccc(/C(O)=C2\C(=O)C(=O)N(CCCn3ccnc3)C2c2cccc([N+](=O)[O-])c2)c1 (stereo not drawn) [Compound Z316156320]
10%	CCCOc1ccc(C2/C(=C(\O)c3ccc(F)cc3)C(=O)C(=O)N2CCCn2ccnc2)cc1OC (stereo not drawn) [Compound Z316169876]
12%	COc1ccc(/C(O)=C2\C(=O)C(=O)N(CCCn3ccnc3)C2c2ccc(OC(C)C)cc2)cc1 (stereo not drawn) [Compound Z316169960]
1%	Fc1ccccc1-n1c(SCc2cccnc2)nnc1-c1ccccc1Cl [Compound Z316264326]
23%	O=C(Nc1cccc(S(=O)(=O)NC2=NCCCCC2)c1)C1(c2cccc(Cl)c2)CC1 [Compound Z316438002]
-4%	COc1ccc(-c2cc(CSCC(=O)Nc3ccc4c(c3)CCC4)on2)cc1 [Compound Z317186982]
-7%	COc1ccc(-c2cc(CSCc3nc(N)nc(Nc4ccccc4)n3)on2)cc1 [Compound Z317187130]
-4%	CC(Sc1ncn(-c2ccccc2)n1)c1nc(N)nc(N(C)C)n1 (stereo not drawn) [Compound Z317369924]
-10%	O=C(Nc1nc2c(s1)CN(Cc1ccccc1)CC2)c1cc(-c2ccco2)[nH]n1 [Compound Z317663344]
-2%	O=C(NCc1ccc(-n2cccn2)nc1)c1cc(-c2ccco2)[nH]n1 [Compound Z317736476]
6%	Cc1ccc(Nc2nccc(C(F)(F)F)n2)cc1S(=O)(=O)N(C)C [Compound Z318799754]
7%	N#CCOc1ccc(Nc2nccc(C(F)(F)F)n2)cc1 [Compound Z318833320]
7%	Nc1c(Cl)cc(Nc2nccc(C(F)(F)F)n2)cc1Cl [Compound Z318854232]
22%	FC(F)(F)c1ccnc(Nc2ccc3nc(N4CCCC4)sc3c2)n1 [Compound Z318995726]
-7%	FC(F)(F)c1ccnc(Nc2ccc(N3CCOCC3)nc2)n1 [Compound Z318998372]
-5%	FC(F)(F)c1ccnc(Nc2ccc(N3CCCC3)nc2)n1 [Compound Z319012342]
2%	CN(C)c1ccc(Nc2nccc(C(F)(F)F)n2)cn1 [Compound Z319012738]
-36%	O=C(c1ccc(Nc2nccc(C(F)(F)F)n2)cc1)N1CCCC1 [Compound Z319025642]
-2%	CC(C)c1ccc(C(=O)N2CCN(c3ccc(C#N)cn3)CC2)cc1 [Compound Z319076580]
-2%	Cn1ncc2c(N3CCOC(c4ccc(F)cc4)C3)ncnc21 (stereo not drawn) [Compound Z319092016]
8%	O=C(/C=c1/[nH]c(=O)/c(=C\c2ccc(Cl)cc2)s1)c1ccncc1 [Compound Z319403812]

First screening IR (inhibition rate)	SMILES
-5%	NC(=O)c1ccc(CN(C2CC2)S(=O)(=O)c2cccc(Cl)c2)cc1 [Compound Z319895028]
-17%	NC(=O)C(NCCCN1CCc2ccccc21)c1ccccc1 (stereo not drawn) [Compound Z320065982]
0%	O=C(Nc1ccc(F)cc1)c1nnc(CSc2ncc(-c3ccccc3)[nH]2)s1 [Compound Z325218452]
-8%	CN(C)c1nc(N)nc(CSCCC(=O)Nc2ccccc2)n1 [Compound Z327260972]
10%	CN(Cc1ccc(C(=O)NCC(F)(F)F)cc1)c1cc(Cl)nc(N)n1 [Compound Z328693166]
-5%	CC(c1cc2ccccc2o1)N(C)c1ncnc2c1cnn2C (stereo not drawn) [Compound Z328694162]
-21%	Cn1ncc2c(N(Cc3ccccc3F)C3CC3)ncnc21 [Compound Z328694806]
-1%	CC(c1ccc(F)c(F)c1)N(C)c1ncnc2c1cnn2C (stereo not drawn) [Compound Z328694928]
24%	COC(=O)c1cc(-c2ccc(OC)cc2)nc2c1c(C)nn2CCC#N [Compound Z328815354]
1%	CCc1c(C(=O)Nc2n[nH]c(-c3ccc(C)cc3)n2)cnn1-c1ccccc1 [Compound Z332932578]
14%	COc1ccc(-c2nc(NC(=O)c3ccc(NC(=O)c4ccccc4)cc3)n[nH]2)cc1 [Compound Z332936670]
-2%	O=C(NCc1cn2ccsc2n1)C1CC1c1ccccc1C(F)(F)F (stereo not drawn) [Compound Z333170264]
-9%	COc1ccc(/C(O)=C2\C(=O)C(=O)N(CCCn3ccnc3)C2c2cccnc2)cc1OC (stereo not drawn) [Compound Z335452550]
3%	CC(NC(c1ccccc1)c1ccccn1)c1ccncc1 (stereo not drawn) [Compound Z335491150]
12%	O=C(CSc1ccc(S(=O)(=O)N2CCCC2)cn1)c1ccc2c(c1)OCO2 [Compound Z335869204]
15%	O=c1cc(-c2ccccc2)c2cc(Cl)c(OCCO)cc2o1 [Compound Z335913836]
-7%	CC(C)(C)c1nc(SCC(=O)c2ccc3c(c2)CCC3)n[nH]1 [Compound Z335958518]
2%	Cn1nccc1/C=C1\C(=O)Nc2ccccc21 [Compound Z336032014]
54%	CC(C)n1ncc2cc(/C=C3/CN(C)Cc4c3nc3ccccc3c4C(=O)O)c(Cl)nc21 [Compound Z336032562]
-5%	CCCn1c(=O)[nH]c(=O)c2c(C(=O)Nc3ccccc3N3CCOCC3)cc(C3CC3)nc21 [Compound Z337770612]
6%	CC(C)Cn1c(=O)[nH]c(=O)c2c(C(=O)NCc3ccc(CN4CCOCC4)cc3)cc(C3CC3)nc21 [Compound Z338592020]
-22%	O=c1c([N+](=O)[O-])c(NCCCn2ccnc2)c2ccccc2n1-c1ccccc1 [Compound Z339024634]
11%	O=C(Nn1cnc2ccccc21)c1cnn(-c2ccccc2F)c1-n1cccc1 [Compound Z339292340]
-12%	O=C(Nc1ccc2ccccc2n1)c1ccc(OCc2cccnc2)cc1 [Compound Z339583070]

First screening IR (inhibition rate)	SMILES
-2%	N#Cc1ccccc1CSCCNC(=O)N1CCN(c2ncc(C(F)(F)F)cc2Cl)CC1 [Compound Z352490104]
44%	CN(CCCC(=O)O)S(=O)(=O)c1cc(S(C)(=O)=O)ccc1Cl [Compound Z353969056]
2%	CS(=O)(=O)c1ccc(Cl)c(S(N)(=O)=O)c1 [Compound Z353972988]
7%	CCC1CCCCN1S(=O)(=O)c1cc(S(C)(=O)=O)ccc1Cl (stereo not drawn) [Compound Z355127288]
12%	CC1CC(C)CN(S(=O)(=O)c2cc(S(C)(=O)=O)ccc2Cl)C1 (stereo not drawn) [Compound Z355129038]
12%	Cc1ccc(-c2cc(C(=O)OCc3nc(C(C)(C)C)no3)n[nH]2)s1 [Compound Z355654248]
-9%	Cc1nc2c(cc1C(=O)NCCNc1ccccc1[N+](=O)[O-])c(C)nn2C [Compound Z355820588]
-13%	Cc1cc(NC(=O)C(C)SCC(=O)Nc2ccc(SC3CCCC3)cc2)no1 (stereo not drawn) [Compound Z357095098]
-10%	CN(C1CCCCC1)S(=O)(=O)N1CCN(c2cn[nH]c(=O)c2Cl)CC1 [Compound Z357945110]
5%	C=CCn1c(-c2ccc(Cl)cc2)nn(CN2CCN(C(=O)c3ccccc3F)CC2)c1=S [Compound Z358275910]
-23%	CN1CCCN(c2nc(C(F)(F)F)nc3c2cnn3Cc2ccccc2)CC1 [Compound Z359311942]
-4%	CCN(CC)C(=O)CN1CCCN(c2ncnc3c2cnn3C)CC1 [Compound Z359324360]
6%	O=C(Nc1cccc(Cn2ccnc2)c1)c1cc2c(s1)-c1ccccc1OC2 [Compound Z362662212]
8%	O=C(COc1ccc(Br)cc1)Nc1cccc(Cn2ccnc2)c1 [Compound Z362662788]
-5%	Cc1ccc(-n2ncc(C(=O)Nc3ccccc3F)c2C2CC2)cc1Cl [Compound Z363094390]
3%	O=C(NCc1ccc(-n2ccnc2)nc1)c1ccc(-c2ccccc2)cc1 [Compound Z363639532]
0%	O=C(/C=C/c1ccc(Br)o1)Nc1ccc(S(=O)(=O)C2CCCC2)cc1 [Compound Z364474850]
9%	Cc1cc(C(=O)Nc2ccc3c(c2)CCC3)ccc1-n1cnnn1 [Compound Z365246124]
48%	O=C(c1ccc(=O)[nH]c1)N1CCN(C(=O)c2cc3ccccc3o2)CC1 [Compound Z368093014]
-18%	NC(=O)c1cc(NC(=O)c2cc(-c3ccccc3Cl)n[nH]2)ccc1F [Compound Z368298320]
-4%	CCC(CC)N(C)S(=O)(=O)c1ccc(S(N)(=O)=O)cc1 [Compound Z369246436]
11%	O=C(NCc1ccccc1)Nc1ccc2oc(C3CC3)nc2c1 [Compound Z369933958]
6%	CC(=O)N1CCN(c2nc(C(F)(F)F)nc3ccsc23)CC1 [Compound Z370715150]

same assay, conditions: second screening, dissolved from fresh powder; n = 4; 10 μmol L−1 compound

Second screening IR (inhibition rate)	SMILES
-2%	CC(C)n1ncc2cc(/C=C3/CN(C)Cc4c3nc3ccccc3c4C(=O)O)c(Cl)nc21 [Compound Z336032562]
